Among the data in ChEMBL document CHEMBL5291721, “A preclinical secondary pharmacology resource illuminates target-adverse drug reaction associations of marketed drugs” (Nat Commun, 2023) are AC50 values, retold here.

One may read the AC50 as the midpoint of the concentration-response curve, whichever way the signal moves. Read a low AC50 as activity at low concentration.

Assay [1] has as its target T1, Oxysterols receptor LXR-alpha (Homo sapiens, UniProt Q13133).
T1 sequence (Q13133 whole entry): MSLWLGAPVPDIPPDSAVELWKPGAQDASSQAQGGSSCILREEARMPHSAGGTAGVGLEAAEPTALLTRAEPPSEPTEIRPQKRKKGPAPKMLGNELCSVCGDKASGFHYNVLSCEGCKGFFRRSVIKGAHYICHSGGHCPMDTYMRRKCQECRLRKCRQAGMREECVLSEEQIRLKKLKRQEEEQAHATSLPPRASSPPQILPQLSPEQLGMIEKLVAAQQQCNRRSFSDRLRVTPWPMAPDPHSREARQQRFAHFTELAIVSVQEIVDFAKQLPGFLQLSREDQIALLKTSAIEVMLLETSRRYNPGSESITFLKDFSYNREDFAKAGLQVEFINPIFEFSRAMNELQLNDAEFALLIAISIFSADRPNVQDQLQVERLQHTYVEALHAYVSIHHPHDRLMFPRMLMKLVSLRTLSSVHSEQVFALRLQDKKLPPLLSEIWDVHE
It counts as functional.

The target in the next assay is T2, Glucocorticoid receptor (Homo sapiens, UniProt P04150).
T2 sequence (P04150 whole entry): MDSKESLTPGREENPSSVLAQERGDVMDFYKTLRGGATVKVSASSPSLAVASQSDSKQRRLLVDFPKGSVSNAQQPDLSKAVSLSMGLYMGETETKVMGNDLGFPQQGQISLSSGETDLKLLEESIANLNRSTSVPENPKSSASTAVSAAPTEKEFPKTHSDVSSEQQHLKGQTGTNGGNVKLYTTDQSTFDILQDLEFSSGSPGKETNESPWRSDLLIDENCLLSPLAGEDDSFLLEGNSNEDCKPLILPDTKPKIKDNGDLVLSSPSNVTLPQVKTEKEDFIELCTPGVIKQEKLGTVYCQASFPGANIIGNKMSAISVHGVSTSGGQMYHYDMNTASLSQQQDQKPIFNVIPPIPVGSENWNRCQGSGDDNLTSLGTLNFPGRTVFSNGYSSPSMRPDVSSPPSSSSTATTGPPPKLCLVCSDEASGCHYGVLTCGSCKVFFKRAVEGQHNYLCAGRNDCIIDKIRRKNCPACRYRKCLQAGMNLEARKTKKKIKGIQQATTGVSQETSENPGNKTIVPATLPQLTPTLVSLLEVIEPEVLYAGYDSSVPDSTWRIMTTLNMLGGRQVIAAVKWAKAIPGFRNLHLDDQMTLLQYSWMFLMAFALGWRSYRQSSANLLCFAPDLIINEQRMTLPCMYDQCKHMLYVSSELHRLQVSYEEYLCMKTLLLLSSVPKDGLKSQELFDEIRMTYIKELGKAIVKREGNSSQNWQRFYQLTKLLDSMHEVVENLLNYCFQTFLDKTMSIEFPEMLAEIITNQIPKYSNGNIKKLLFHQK
It counts as functional.

Assay [2] concerns the target T3, Type-1 angiotensin II receptor (Homo sapiens, UniProt P30556).
T3 sequence (P30556 whole entry): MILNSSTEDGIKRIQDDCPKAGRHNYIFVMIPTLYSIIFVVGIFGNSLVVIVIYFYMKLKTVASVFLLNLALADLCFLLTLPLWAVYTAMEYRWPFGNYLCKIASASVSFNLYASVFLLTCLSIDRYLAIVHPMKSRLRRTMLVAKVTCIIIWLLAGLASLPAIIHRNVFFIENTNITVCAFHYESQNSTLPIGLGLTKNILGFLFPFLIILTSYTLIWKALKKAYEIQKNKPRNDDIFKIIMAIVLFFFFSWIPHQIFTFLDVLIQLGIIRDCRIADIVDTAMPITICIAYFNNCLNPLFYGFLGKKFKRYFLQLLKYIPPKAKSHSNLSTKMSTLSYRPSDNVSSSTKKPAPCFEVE

Assay [3] has as its target T4, Alpha-1A adrenergic receptor (Homo sapiens, UniProt P35348).
T4 sequence (P35348 whole entry): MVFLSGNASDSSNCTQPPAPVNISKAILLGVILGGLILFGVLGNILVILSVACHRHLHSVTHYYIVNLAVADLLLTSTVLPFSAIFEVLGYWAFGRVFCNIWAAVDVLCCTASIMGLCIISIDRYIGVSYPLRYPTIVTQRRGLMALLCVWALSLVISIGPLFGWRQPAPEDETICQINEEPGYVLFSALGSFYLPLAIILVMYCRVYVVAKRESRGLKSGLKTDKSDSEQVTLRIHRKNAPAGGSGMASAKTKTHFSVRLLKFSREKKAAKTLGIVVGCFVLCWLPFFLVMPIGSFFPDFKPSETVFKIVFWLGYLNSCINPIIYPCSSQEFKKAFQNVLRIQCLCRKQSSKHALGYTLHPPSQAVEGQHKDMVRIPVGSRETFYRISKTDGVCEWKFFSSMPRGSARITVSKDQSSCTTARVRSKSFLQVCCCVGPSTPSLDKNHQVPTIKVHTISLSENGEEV
It counts as functional, cell-based.

In assay [4] the target is T4, Alpha-1A adrenergic receptor. It counts as functional, cell-based. The source holds these as a separate data set.
The next assay addresses T5, Androgen receptor (Homo sapiens, UniProt P10275).
T5 sequence (P10275 whole entry): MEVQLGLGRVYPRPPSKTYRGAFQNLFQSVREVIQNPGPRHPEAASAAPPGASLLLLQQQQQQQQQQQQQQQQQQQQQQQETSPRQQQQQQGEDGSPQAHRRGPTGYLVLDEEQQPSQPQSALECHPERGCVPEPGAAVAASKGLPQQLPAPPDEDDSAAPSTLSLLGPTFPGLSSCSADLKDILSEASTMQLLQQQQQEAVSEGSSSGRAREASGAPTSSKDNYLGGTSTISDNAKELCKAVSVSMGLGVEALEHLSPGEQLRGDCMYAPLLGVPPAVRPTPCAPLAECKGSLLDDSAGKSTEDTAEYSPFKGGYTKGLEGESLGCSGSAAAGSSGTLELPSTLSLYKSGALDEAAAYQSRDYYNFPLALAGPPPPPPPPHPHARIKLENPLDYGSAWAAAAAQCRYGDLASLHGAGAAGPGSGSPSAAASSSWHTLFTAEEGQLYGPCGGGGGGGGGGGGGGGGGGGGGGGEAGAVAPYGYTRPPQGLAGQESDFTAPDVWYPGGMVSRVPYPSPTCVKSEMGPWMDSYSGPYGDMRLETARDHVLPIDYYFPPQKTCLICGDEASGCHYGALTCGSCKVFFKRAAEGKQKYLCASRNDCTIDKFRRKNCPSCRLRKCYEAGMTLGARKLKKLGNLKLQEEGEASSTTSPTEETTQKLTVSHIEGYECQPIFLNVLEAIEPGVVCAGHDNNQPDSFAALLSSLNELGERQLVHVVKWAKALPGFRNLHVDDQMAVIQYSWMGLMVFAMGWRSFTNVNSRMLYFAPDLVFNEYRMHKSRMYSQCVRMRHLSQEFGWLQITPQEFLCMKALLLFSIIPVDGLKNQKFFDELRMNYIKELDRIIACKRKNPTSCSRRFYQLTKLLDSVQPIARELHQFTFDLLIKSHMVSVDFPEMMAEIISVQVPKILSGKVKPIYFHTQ
Further: assay procedure not described here.

As to `CC(C)c1c(C(=O)Nc2ccccc2)c(-c2ccccc2)c(-c2ccc(F)cc2)n1CC[C@@H](O)C[C@@H](O)CC(=O)O` [ATORVASTATIN], the half-maximal activity concentration (AC50) in assay [1] is > 30 µM.
Consider `[H]/N=C(/N)c1ccc(NCc2nc3cc(C(=O)N(CCC(=O)O)c4ccccn4)ccc3n2C)cc1` [DABIGATRAN], for which, on Glucocorticoid receptor, the AC50 was > 30 µM.
In the case of `Cc1c(O)c(=O)ccn1C` [DEFERIPRONE], the half-maximal activity concentration (AC50) in assay [2] is > 100 µM.
Take `Nc1nc2ccc(OC(F)(F)F)cc2s1` [RILUZOLE]: the AC50 in assay [3] and in assay [4] was > 30 µM in each case.
On to BIVALIRUDIN, for which, on Androgen receptor, the concentration at half-maximal activity (AC50) was > 30 µM.
